According to US20100292288A1, “CRYSTALLINE FORMS OF (R)-1-{2-[4`- (3-METHOXY-PROPANE-1- SULFONYL)-BIPHENYL-4-YL]-ETHYL}-2-METHYL-PYRROLIDINE, AND COMPOSITIONS, AND METHODS RELATED THERETO” (ARENA PHARMACEUTICALS, INC., priority 2007, published 2010):

What was measured:
[1] = Dynamic vapor sorption (DVS) analysis, hygroscopicity; assay type: physicochemical; details: crystalline form; VTI-SGA100
Protocol: Dynamic vapor sorption analysis was conducted using a VTI-SGA100. Samples were placed in an open pan inside the instrument and allowed to dry at a relative humidity (RH) of 0%. The sample was considered sufficiently dry when a change in mass over time (dm/dt) was less than 0.04%. The subsequent experiment which, started immediately after drying, was as follows: RH increased in 5% RH steps from 0-95% followed by decreasing RH steps from 95-5%. A change in dm/dt of 0.002% was used to determine when equilibration at any given step was achieved prior to the instrument moving to the next relative humidity step.
Hygroscopicity was measured using a dynamic moisture-sorption analyzer, VTI Corporation, SGA-100. The sample was placed as-is in a tared sample holder on the VTI balance. A drying step was run at 40° C. and 1% RH for 20 minutes. The isotherm conditions are 25° C. with steps of 20% RH from 10% RH up to 90% RH and back to 10% RH. Weight is checked every 5 minutes. Consecutive % weight change of <0.01% or 2 hours, whichever occurs first, is required before continuing to the next step.

histamine H3-receptor = histamine H3-receptor (Rattus norvegicus, UniProt Q9QYN8); assay: [3H] N-alpha-methyl-histamine competitive histamine H3-receptor binding assay; details: membranes from whole rat brain cortex; [3H]-N-α-methyl-histamine 1 nM; 30 min at room temperature
Chain of histamine H3-receptor (Q9QYN8 1-397 isoform Q9QYN8-3): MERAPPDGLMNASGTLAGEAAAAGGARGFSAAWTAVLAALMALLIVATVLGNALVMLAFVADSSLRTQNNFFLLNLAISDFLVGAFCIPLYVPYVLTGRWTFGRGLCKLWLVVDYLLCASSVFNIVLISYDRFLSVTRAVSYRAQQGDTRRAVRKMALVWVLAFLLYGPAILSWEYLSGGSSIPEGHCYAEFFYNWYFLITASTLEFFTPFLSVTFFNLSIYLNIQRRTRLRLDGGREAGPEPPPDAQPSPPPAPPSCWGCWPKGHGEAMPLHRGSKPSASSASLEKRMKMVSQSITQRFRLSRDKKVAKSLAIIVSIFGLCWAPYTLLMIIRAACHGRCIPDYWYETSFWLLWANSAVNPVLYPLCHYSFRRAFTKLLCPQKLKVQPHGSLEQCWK
Protocol: The histamine receptor binding assay was conducted using standard laboratory procedures as described below. A crude membrane fraction was prepared from whole rat brain cortex using a polytron to homogenize the tissue followed by differential centrifugation in a HEPES-based buffer containing protease inhibitors. Membranes where frozen at −80° C. until needed. Frozen membranes were thawed and resuspended in ice-cold assay buffer consisting of 50 mM TRIS containing 5 mM EDTA (pH=7.4). 50 micrograms (μg) of membrane protein was added to each well of a 96-well assay plate along with test compound and [^3H]-N-α-methyl-histamine (1 nanomolar (nM) final assay concentration). Imetit was used as an assay positive control at varying concentrations. The plate was incubated for 30 min at room temperature. The assay was terminated by rapid filtration through a 96-well glass fiber filtration plate (GF/C) using a cell harvester (Perkin-Elmer). Captured membranes were washed three times with cold assay buffer and plates were dried at 50° C. 35 microliters (μL) of scintillation cocktail was added to each well and membrane-bound radioactivity was recorded using a TopCount 96-well plate scintillation counter (Perkin-Elmer).

RAMH-induced drinking = assay: Blockade of RAMH-induced drinking assay; assay type: in vivo, rat; details: male Sprague Dawley rats; 0.3 mg/kg PO; RAMH 3 mg/kg SC 30 min later; water intake over 20 min
Protocol: When administered to rodents, H3 agonists such as R-α-methyl-histamine (RAMH) induce a drinking response which is sensitive to reversal with an H3 antagonist. Blockade of RAMH-induced drinking can therefore be utilised as an in vivo assay for functional H3 antagonist activity. In this assay, male Sprague Dawley rats (250-350 g) were housed three per cage and maintained under a reverse 12 h light cycle (lights off at 1130 h). At 1030 h on the day of test, rats were individually housed in new cages and food was removed. 120 min later, rats were administered test article (vehicle or H3 antagonist, 0.3 mg/kg PO). 30 min later, water was removed, and RAMH (vehicle or RAMH 3 mg/kg salt SC) was administered. 10 min after administration of RAMH, weighed water bottles were placed in the cages, and drinking was allowed for 20 min. Water consumption was determined for each animal by weighing each bottle to the nearest 0.1 g. Data is expressed as percentage reduction in water intake according to the following formula: [1−[(ANTAGONIST/RAMH)−(VEHICLE/RAMH)/(VEHICLE/RAMH)−(VEHICLE/VEHICLE)]]*100

[2] = biological target: T1, human histamine H3-receptor (Homo sapiens, UniProt Q9Y5N1); assay: Human histamine H3-receptor binding assay, MDS Pharma Services (Taiwan); details: Catalogue No. 239810
T1 construct: purchased MDS Pharma Services (Taiwan) 239810
T1 sequence (Q9Y5N1 whole entry): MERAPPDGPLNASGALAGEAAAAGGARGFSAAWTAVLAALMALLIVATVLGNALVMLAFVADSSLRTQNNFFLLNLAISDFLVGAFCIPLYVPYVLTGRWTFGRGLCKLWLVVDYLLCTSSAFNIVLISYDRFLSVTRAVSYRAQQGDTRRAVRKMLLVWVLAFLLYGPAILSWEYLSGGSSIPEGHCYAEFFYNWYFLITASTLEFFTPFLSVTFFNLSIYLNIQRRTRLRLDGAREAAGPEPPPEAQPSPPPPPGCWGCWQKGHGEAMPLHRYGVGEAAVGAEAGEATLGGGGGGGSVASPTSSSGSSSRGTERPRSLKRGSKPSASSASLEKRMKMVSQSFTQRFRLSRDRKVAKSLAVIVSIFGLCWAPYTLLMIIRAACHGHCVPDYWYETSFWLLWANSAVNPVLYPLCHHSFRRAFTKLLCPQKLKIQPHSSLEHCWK
Protocol: Compounds were tested for their ability to bind to the human histamine H3-receptor using the MDS Pharma Services (Taiwan) assay, Catalogue No. 239810.

| hygroscopicity from DVS data [1] | Ki (histamine H3-receptor) [nM] | Ki [2] [nM] | SMILES | % inhibition of RAMH-induced drinking (RAMH-induced drinking) [%] |
| --- | --- | --- | --- | --- |
| non-hygroscopic | – | – | COCCCS(=O)(=O)c1ccc(-c2ccc(CCN3CCC[C@H]3C)cc2)cc1.O=C(O)/C=C\C(=O)O [(R)-1-{2-[4′-(3-methoxy-propane-1-sulfonyl)-biphenyl-4-yl]-ethyl}-2-methyl-pyrrolidine maleate] | – |
| non-hygroscopic | 0.75 | – | COCCCS(=O)(=O)c1ccc(-c2ccc(CCN3CCC[C@H]3C)cc2)cc1.O=C(O)CC(O)(CC(=O)O)C(=O)O.O=C(O)CC(O)(CC(=O)O)C(=O)O [Cmpd (I) di-citrate, (R)-1-{2-[4′-(3-methoxy-propane-1-sulfonyl)-biphenyl-4-yl]-ethyl}-2-methyl-pyrrolidine di-citrate] | 104 ± 14 |
| – | – | 5.37 | COCCCS(=O)(=O)c1ccc(-c2ccc(CCN3CCC[C@H]3C)cc2)cc1 [Cmpd (I), (R)-1-{2-[4′-(3-methoxy-propane-1-sulfonyl)-biphenyl-4-yl]-ethyl}-2-methyl-pyrrolidine] | – |
